# Data from US6156790A, “C-10 carbon-substituted artemisinin-like trioxane compounds having antimalarial, antiproliferative and antitumor activities” (priority 1997, dated 2000).
# “Also recorded” adds a separate entry of the source. Read-outs that look alike come from different tables or passages of the source.
# How the values were obtained:
# ACHN = experiment: cells; details: Homo sapiens
# HOP-62 = experiment: cells; assay type: cell-based; details: Homo sapiens, read-out: Log10 GI50 (converted)
# HCT-15 = experiment: cells; assay type: cell-based; details: Homo sapiens, HCT-15
# BT-549 = experiment: cells; assay type: cell-based; details: Homo sapiens
# EKVX = experiment: NCI 60 cell line screen (SRB), non-small cell lung cancer; assay type: cell-based; details: Homo sapiens
# OVCAR-8 = experiment: NCI 60 cell line screen (SRB), ovarian cancer; assay type: cell-based; details: Homo sapiens
# NCI-H460 = experiment: cells; assay type: cell-based; details: Homo sapiens, NCI-H460
# SR = experiment: cells; assay type: cell-based; details: Homo sapiens
# A549/ATCC = experiment: NCI 60 cell line screen (SRB), non-small cell lung cancer; assay type: cell-based; details: Homo sapiens
# UO-31 = experiment: NCI 60 cell line screen (SRB), renal cancer; assay type: cell-based; details: Homo sapiens
# SNB-19 = experiment: cells; assay type: cell-based; details: Homo sapiens, read-out: Log10 GI50 (converted)
# U251 = experiment: cells; assay type: cell-based; details: Homo sapiens
# HOP-92 = experiment: NCI 60 cell line screen (SRB), non-small cell lung cancer; assay type: cell-based; details: Homo sapiens, read-out: Log10 GI50 (converted)
# TK-10 = experiment: cells; assay type: cell-based; details: Homo sapiens
# SNB-75 = experiment: cells; assay type: cell-based; details: Homo sapiens, read-out: Log10 GI50 (converted)
# SK-MEL-2 = experiment: cells; assay type: cell-based; details: Homo sapiens
# T-47D = experiment: cells; assay type: cell-based; details: Homo sapiens, T47D, T-47D
# RXF 393 = experiment: cells; details: Homo sapiens, RXF 393, read-out: Log10 GI50 (converted)
# MDA-MB231/ATCC = experiment: cells; assay type: cell-based; details: Homo sapiens, MDA-MB-231, read-out: Log10 TGI (converted)
# MOLT-4 = experiment: cells; details: Homo sapiens
# Procedure: The screening assay is performed on a 96-well microtitre plates.
# Dose response curves, shown in the above mentioned Figures, are obtained by exposing various cancer cell lines to compounds having a known concentration ([log10 M]), as discussed in detail above, and then plotting the percentage growth of each cell line for each concentration. […] As discussed previously, the five drug dilutions routinely tested range from 10^-4 to 10^-9 molar.
# 60 cell line panel = experiment: NCI 60 cell line screen, whole panel; assay type: cell-based
# SW-620 = experiment: NCI 60 cell line screen (SRB), colon cancer; assay type: cell-based; details: Homo sapiens
# M14 = experiment: NCI 60 cell line screen (SRB), melanoma; details: Homo sapiens, M14, read-out: Log10 GI50 (converted)
# HT29 = experiment: cells; assay type: cell-based; details: Homo sapiens, HT-29, read-out: Log10 GI50 (converted)
# NCI-H23 = experiment: NCI 60 cell line screen (SRB), non-small cell lung cancer; assay type: cell-based; details: Homo sapiens
# MCF7 = experiment: cells; assay type: cell-based; details: Homo sapiens, MCF7; read-out: Log10 GI50 (converted)
# NCI-H226 = experiment: NCI 60 cell line screen (SRB), non-small cell lung cancer; assay type: cell-based; details: Homo sapiens, read-out: Log10 GI50 (converted)
# HCT-116 = experiment: cells; assay type: cell-based; details: Homo sapiens
# KM12 = experiment: cells; assay type: cell-based; details: Homo sapiens, read-out: Log10 TGI (converted)
# PC-3 = experiment: cells; assay type: cell-based; details: Homo sapiens, PC-3
# MDA-N = experiment: cells; assay type: cell-based; details: Homo sapiens, read-out: Log10 GI50 (converted)
# A498 = experiment: cells; assay type: cell-based; details: Homo sapiens, read-out: Log10 GI50 (converted)
# IGROVI = experiment: cells; details: 60 cell
# [1] = read-out: Log10 GI50 (converted)
# [2] = read-out: Log10 LC50 (converted)
# [3] = read-out: Log10 TGI (converted)
compound,measurement,setting,value
"C[C@H]1[C@@H](F)O[C@@H]2O[C@@]3(C)CC[C@H]4[C@H](C)CC[C@@H]1[C@@]24OO3 [Compound VI, 10β-Fluorodeoxoartemisinin]",GI50,ACHN; [1],1.02 µM
same,CC50,ACHN; [2],38.9 µM
same,IC (TGI),ACHN; read-out: Log10 TGI,12.6 µM
same,GI50,HOP-62,12.9 µM
same,GI50,HCT-15; [1],0.339 µM
same,IC (TGI),HCT-15; [3],51.3 µM
same,GI50,BT-549; [1],0.759 µM
same,IC (TGI),BT-549; [3],30.9 µM
same,GI50,EKVX; [1],2.95 µM
same,IC (TGI),EKVX; [3],89.1 µM
same,GI50,OVCAR-8; [1],2.04 µM
same,IC (TGI),OVCAR-8; [3],51.3 µM
same,GI50,NCI-H460; [1],0.813 µM
same,CC50,NCI-H460; [2],55 µM
same,IC (TGI),NCI-H460; [3],19.1 µM
same,GI50,SR; [1],0.427 µM
same,IC (TGI),SR; [3],13.8 µM
same,GI50,A549/ATCC; [1],6.03 µM
same,IC (TGI),A549/ATCC; [3],30.9 µM
same,GI50,UO-31; [1],1.1 µM
same,CC50,UO-31; [2],25.1 µM
same,IC (TGI),UO-31; [3],5.01 µM
same,GI50,SNB-19,871 µM
same,GI50,"U251; U-251, read-out: Log10 GI50 (converted)",0.447 µM
same,CC50,"U251; U-251, read-out: Log10 LC50 (converted)",42.7 µM
same,IC (TGI),"U251; U-251, read-out: Log10 TGI (converted)",16.2 µM
same,GI50,HOP-92,2.95 µM
same,GI50,TK-10; [1],11 µM
same,IC (TGI),TK-10; [3],37.2 µM
same,GI50,SNB-75,14.5 µM
same,GI50,SK-MEL-2; [1],7.59 µM
same,IC (TGI),SK-MEL-2; [3],77.6 µM
same,GI50,T-47D; [1],0.302 µM
same,IC (TGI),T-47D; [3],47.9 µM
same,GI50,RXF 393,14.8 µM
same,IC (TGI),MDA-MB231/ATCC,56.2 µM
same,GI50,"MOLT-4; MOLT-4, read-out: Log10 GI50 (converted)",0.427 µM
same,IC (TGI),"MOLT-4; MOLT-4, read-out: Log10 TGI",36.3 µM
same,GI50,"MOLT-4; MOLT-4, read-out: concentration for primary growth inhibition",~0.1 µM
same,IC (TGI),"60 cell line panel; 60 cell, mean over panel, read-out: Log10 TGI MG MID (converted)",41.7 µM
same,CC50,"60 cell line panel; Homo sapiens, 60 cell, mean over panel, read-out: Log10 LC50 MG MID (converted)",93.3 µM
same,potency compared with artemisinin,"60 cell line panel; Tables III, IV and V",more potent than artemisinin
same,potency compared with paclitaxel,"60 cell line panel; Tables III, IV and V",in most instances are as potent and in some instances more potent than paclitaxel; also recorded: equivalent to and in many instances higher in potency than paclitaxel
same,GI50,SW-620; [1],0.398 µM
same,CC50,SW-620; [2],63.1 µM
same,IC (TGI),SW-620; [3],15.5 µM
same,GI50,M14,17.4 µM
same,GI50,HT29,0.407 µM
same,GI50,NCI-H23; [1],0.631 µM
same,IC (TGI),NCI-H23; [3],25.1 µM
same,GI50,MCF7,0.525 µM
same,GI50,NCI-H226,5.75 µM
same,GI50,HCT-116; [1],0.195 µM
same,CC50,HCT-116; [2],42.7 µM
same,IC (TGI),KM12,26.9 µM
same,GI50,PC-3; [1],0.251 µM
same,IC (TGI),PC-3; [3],46.8 µM
same,GI50,MDA-N,1.15 µM
same,GI50,A498,28.2 µM
same,GI50,IGROVI; [1],1.23 µM
same,IC (TGI),IGROVI; read-out: Log10 TGI,18.2 µM
